{
  "source": "patent US4183954A",
  "about": "“Benzoic acid derivatives and therapeutic composition containing the same” (Seuref A.G., priority 1977, dated 1980)",
  "key": {"[1]": {"test": "Acute toxicity (LD50), method of Lichtfield and Wilcoxon, rats", "settings": "rat, in vivo"}, "[2]": {"test": "Chronic toxicity test, 3 months", "format": "in vivo, rats", "text": "The chronic toxicity tests confirmed the low toxicity of the product."}, "choleresis": {"tested_on": "choleresis", "test": "Choleretic activity", "format": "in vivo", "settings": "rats"}, "[3]": {"tested_on": "hypercholesterolemia induced by Twin-Triton", "test": "Hypocholesterolemic activity (Twin-Triton-induced hypercholesterolemia)", "format": "in vivo", "settings": "rats, 200 mg/kg Twin-Triton i.p."}, "[4]": {"tested_on": "hepatic steatosis and hypercholesterolemia induced by Handler's steatogenic diet", "test": "Anti-steatotic activity (Handler's steatogenic diet)", "format": "in vivo", "settings": "rats, 50 mg/kg daily", "description": "Administration of the test material to rats at a daily dosage of 50 mg/kg inhibits the hepatic steatosis and the hypercholesterolemia induced by Handler's steatogenic diet."}, "[5]": {"tested_on": "experimental phlogistic reaction", "test": "Antiphlogistic activity, experimental phlogistic reaction", "format": "in vivo", "settings": "rats, intraperitoneal or oral, 50 mg/kg to 300 mg/kg", "description": "Intraperitoneal or oral administration of the test material at dosages within the range of from 50 mg/kg to 300 mg/kg inhibits the experimental phlogistic reaction induced in rats."}, "[6]": {"tested_on": "oedema of the rat's paw induced by dextran", "test": "Antiphlogistic activity, oedema of the rat's paw induced by dextran", "format": "in vivo"}, "[7]": {"tested_on": "oedema of the rat's paw induced by carageenin", "test": "Antiphlogistic activity, oedema of the rat's paw induced by carageenin", "format": "in vivo"}, "[8]": {"tested_on": "anaphylactic reaction and death induced in guinea-pigs sensitized with horse serum", "test": "Antianaphylactic activity", "format": "in vivo", "description": "Administration to […] of the test compound at a dosage of 60 mg/kg by the oral route or of 50 mg/kg by the intraperitoneal route inhibits the anaphylactic reaction and the death induced in guinea-pigs sensitized with horse serum."}, "[9]": {"test": "Acute toxicity (LD50), method of Lichtfield and Wilcoxon, mice", "settings": "mouse, in vivo"}, "[10]": {"tested_on": "granulomatous reaction induced by the sub-cutaneous penetration of foreign bodies", "test": "Experimental granuloma test", "format": "in vivo"}},
  "data": [
    {"compound": "CC(C)(Oc1cccc2ccccc12)C(=O)Nc1ccc(C(=O)O)cc1", "note": "[Compound 1, p-[α-(α-naphthoxy)isobutyramido]benzoic acid]", "values": [
      {"measurement": "LD50", "setting": "[1]; ip, intraperitoneal", "result": 425, "unit": "mg/kg"},
      {"measurement": "LD50", "setting": "[1]; oral", "result": 2200, "unit": "mg/kg"},
      {"measurement": "intolerance and toxicity", "setting": "[2]; 50 mg/kg, 3 months", "result": "did not induce any intolerance and any toxicity"},
      {"measurement": "blood, glycemia, transaminases, urinary excretion and azotemia", "setting": "[2]; 50 mg/kg, 3 months, treated rats, beginning and end of treatment", "result": "failed to disclose any significant change or pathological modification"},
      {"measurement": "chronic toxicity (overall)", "setting": "[2]; chronic toxicity tests", "result": "low toxicity"},
      {"measurement": "elimination of biliary pigments or cholesterol", "setting": "choleresis", "result": "increase concerns the elimination of either the biliary pigments or cholesterol"},
      {"measurement": "choleresis", "setting": "choleresis; intraperitoneal, 20 mg/kg", "result": "significant increase of choleresis"},
      {"measurement": "choleresis", "setting": "choleresis; oral, 100 mg/kg", "result": "significant increase of choleresis"},
      {"measurement": "increase of the choleresis compared with dehydrocholic acid", "setting": "choleresis; versus dehydrocholic acid", "result": "more substantial and more extended than that induced by dehydrocholic acid"},
      {"measurement": "inhibition of hypercholesterolemia", "setting": "[3]; 100 mg/kg intraperitoneal", "result": "inhibits"},
      {"measurement": "inhibition of hypercholesterolemia", "setting": "[3]; 300 mg/kg oral", "result": "inhibits"},
      {"measurement": "inhibition of hepatic steatosis", "setting": "[4]", "result": "inhibits"},
      {"measurement": "inhibition of hypercholesterolemia", "setting": "[4]", "result": "inhibits"},
      {"measurement": "inhibition of experimental phlogistic reaction", "setting": "[5]", "result": "inhibits"},
      {"measurement": "inhibition of paw oedema induced by dextran", "setting": "[6]", "result": "inhibits"},
      {"measurement": "inhibition of paw oedema induced by carageenin", "setting": "[7]", "result": "inhibits"},
      {"measurement": "inhibition of anaphylactic reaction and death", "setting": "[8]; 50 mg/kg intraperitoneal", "result": "inhibits"},
      {"measurement": "inhibition of anaphylactic reaction and death", "setting": "[8]; 60 mg/kg oral", "result": "inhibits"},
      {"measurement": "LD50", "setting": "[9]; ip, intraperitoneal", "result": 395, "unit": "mg/kg"},
      {"measurement": "LD50", "setting": "[9]; oral", "result": 2500, "unit": "mg/kg"},
      {"measurement": "inhibition of granulomatous reaction", "setting": "[10]", "result": "inhibits"}
    ]}
  ]
}
